Assay results from US6593326B1, “2,4-diamino pyrimidine compounds having anti-cell proliferative activity” (AstraZeneca AB, priority 1998, dated 2003).

Assays:
[1] = target: T1, CDK4/Cyclin D1 (Homo sapiens, UniProt P11802); assay: CDK4 Inhibition Assay (Scintillation Proximity Assay, GST-Retinoblastoma substrate); type: biochemical; settings: in vitro kinase assay; read-out: CDK4 inhibitory activity IC50
T1 construct: made in house; host or cells: Sf21 insect cells (baculovirus co-infection, pVL1393); the substrate was made in E. coli BL21 (DE3) pLysS
Description: The compounds were tested in an in vitro kinase assay in 96 well format using Scintillation Proximity Assay (SPA-obtained from Amersham) for measuring incorporation of [γ-33-P]-Adenosine Triphosphate into a test substrate (GST-Retinoblastoma). In each well was placed the compound to be tested (diluted in DMSO and water to correct concentrations) and in control wells either p16 as an inhibitor control or DMSO as a positive control.
Approximately 0.5 μl of CDK4/Cyclin D1 partially-purified enzyme (amount dependent on enzyme activity) diluted in 25 μl incubation buffer was added to each well then 20 μl of GST-Rb/ATP/ATP33 mixture (containing 0.5 μg GST-Rb and 0.2 μM ATP and 0.14 μCi [γ-33-P]-Adenosine Triphosphate), and the resulting mixture shaken gently, then incubated at room temperature for 60 minutes. […]
The plates were sealed with Topseal-S plate sealers, left for two hours then spun at 2500 rpm, 1124×g., for 5 minutes. The plates were read on a Topcount for 30 seconds per well. […]
E.coli paste was resuspended in 10 ml/g of NETN buffer (50 mM Tris pH 7.5, 120 mM NaCl, 1 mM EDTA, 0.5% v/v NP-40, 1 mM PMSF, 1 ug/ml leupeptin, 1 ug/ml aprotinin and 1 ug/ml pepstatin) and sonicated for 2×45 seconds per 100 ml homogenate. […] The final product was analysed by Sodium Dodeca Sulfate (SDS) PAGE (Polyacrylamide gel) using 8-16% Tris-Glycine gels (Novex, San Diego, USA). […]

[2] = target: T2, human Focal Adhesion Kinase (FAK) (Homo sapiens, UniProt Q05397); assay: FAK3 Kinase Inhibition Assay; type: biochemical; settings: in vitro enzyme assay; read-out: FAK inhibitory activity IC50
T2 construct: FAK (full length human cDNA described by Andre et al); made in house; host or cells: Sf21 insect cells (baculovirus, pFastbac 1)
Source text: FAK3 Kinase Inhibition Assay
This assay determines the ability of a test compound to inhibit tyrosine kinase activity of human Focal Adhesion Kinase (FAK).
DNA encoding FAK is obtained by total gene synthesis (Edwards M, International Biotechnology Lab 5(3), 19-25, 1987) or by cloning. These are then expressed in a suitable expression system to obtain polypeptide with tyrosine kinase activity.
Active FAK protein has been previously expressed in a baculovirus system using a similar N-terminal 6-histidine tag (Protein Expression And Purification, 1996, 7: 12-18). The human FAK cDNA was cloned into the baculovirus transplacement vector, pFastbac 1 (Life Technologies), and the recombinant construct was co-transfected into insect cells (for example Spodoptera frugiperda 21(Sf21)) with viral DNA to prepare recombinant baculovirus (details of the methods for the assembly of recombinant DNA molecules and the preparation and use of recombinant baculovirus can be found in standard texts for example Sambrook et al, 1989, Molecular cloning—A Laboratory Manual, 2nd edition, Cold Spring Harbour Laboratory Press and O'Reilly et al, 1992, Baculovirus Expression Vectors—A Laboratory Manual, W. H. Freeman and Co, New York. Details specific to the use of the pFastbac (‘Bac to Bac’) system are provided in Anderson et al., 1995, FOCUS (Life Technologies Bulletin Magazine), 17, p53.) […]

T1 sequence (P11802 whole entry): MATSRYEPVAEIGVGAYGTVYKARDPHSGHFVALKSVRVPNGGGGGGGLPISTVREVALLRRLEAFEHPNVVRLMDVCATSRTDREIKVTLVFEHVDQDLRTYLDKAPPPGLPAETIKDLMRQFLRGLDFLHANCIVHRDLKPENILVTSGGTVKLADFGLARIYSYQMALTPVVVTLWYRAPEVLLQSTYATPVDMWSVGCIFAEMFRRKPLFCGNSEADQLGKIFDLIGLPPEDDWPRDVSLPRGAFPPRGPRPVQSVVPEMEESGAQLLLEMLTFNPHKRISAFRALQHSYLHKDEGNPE
T1 sequence (P24385 whole entry partner): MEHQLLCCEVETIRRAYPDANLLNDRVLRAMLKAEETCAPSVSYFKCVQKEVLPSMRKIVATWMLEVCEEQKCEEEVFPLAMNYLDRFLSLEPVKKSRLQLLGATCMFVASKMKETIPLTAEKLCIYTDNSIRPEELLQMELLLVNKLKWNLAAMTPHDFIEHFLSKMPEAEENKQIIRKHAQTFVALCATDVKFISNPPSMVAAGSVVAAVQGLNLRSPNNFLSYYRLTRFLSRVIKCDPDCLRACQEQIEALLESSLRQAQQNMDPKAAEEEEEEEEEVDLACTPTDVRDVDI
T2 sequence (Q05397 whole entry): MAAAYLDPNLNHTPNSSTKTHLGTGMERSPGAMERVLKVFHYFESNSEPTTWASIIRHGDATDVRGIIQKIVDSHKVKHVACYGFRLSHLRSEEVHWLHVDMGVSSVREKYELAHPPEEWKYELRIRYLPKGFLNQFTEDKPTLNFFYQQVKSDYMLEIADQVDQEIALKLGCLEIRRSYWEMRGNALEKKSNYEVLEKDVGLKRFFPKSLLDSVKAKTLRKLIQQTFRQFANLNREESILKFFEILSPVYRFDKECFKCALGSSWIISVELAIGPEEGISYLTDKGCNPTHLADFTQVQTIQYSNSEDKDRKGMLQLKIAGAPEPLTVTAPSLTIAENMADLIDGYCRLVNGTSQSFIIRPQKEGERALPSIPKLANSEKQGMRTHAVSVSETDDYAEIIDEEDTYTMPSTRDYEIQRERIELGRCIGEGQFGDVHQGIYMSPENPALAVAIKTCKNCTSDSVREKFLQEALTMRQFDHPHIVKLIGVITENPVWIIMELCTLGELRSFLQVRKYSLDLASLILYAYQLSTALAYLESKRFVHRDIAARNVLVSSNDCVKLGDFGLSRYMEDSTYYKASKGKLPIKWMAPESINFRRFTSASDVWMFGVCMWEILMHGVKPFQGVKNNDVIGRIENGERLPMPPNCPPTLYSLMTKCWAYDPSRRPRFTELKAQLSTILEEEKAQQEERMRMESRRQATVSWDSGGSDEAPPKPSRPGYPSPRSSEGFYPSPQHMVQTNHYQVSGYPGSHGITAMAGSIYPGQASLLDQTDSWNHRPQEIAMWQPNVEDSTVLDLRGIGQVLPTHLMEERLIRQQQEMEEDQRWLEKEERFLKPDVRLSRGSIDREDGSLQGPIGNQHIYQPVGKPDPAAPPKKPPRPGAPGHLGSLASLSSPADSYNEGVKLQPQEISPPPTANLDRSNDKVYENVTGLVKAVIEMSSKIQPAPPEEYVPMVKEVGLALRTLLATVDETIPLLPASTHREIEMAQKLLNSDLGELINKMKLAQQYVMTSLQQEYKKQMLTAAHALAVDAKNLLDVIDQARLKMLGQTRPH

IC50 [1]	IC50 [2]	SMILES
70 nM	–	CN(C)CC(O)COc1ccc(Nc2ncc(Br)c(Nc3ccccc3)n2)cc1 (racemic) [Example 3, 4-anilino-5-bromo-2-{4-[3-(N,N-dimethyl)amino-2-hydroxypropoxy]anilino}pyrimidine]
20 nM	–	Cc1ccc(F)c(Nc2nc(Nc3ccc(OCC(O)CN(C)C)cc3)ncc2Br)c1 (stereo not shown) [Example 5, 2-{4-[3-(N,N-Dimethyl)amino-2-hydroxy-propoxy]anilino}-4-(2-fluoro-5-methylanilino)-5-bromo-pyrimidine]
–	32 nM	CN(C)CC(O)COc1ccc(Nc2ncc([N+](=O)[O-])c(Nc3ccccc3F)n2)cc1 (stereo not shown) [Example 6]
–	70 nM	CC(C)NCCCNc1ccc(Nc2ncc(Br)c(Nc3ccccn3)n2)cc1 [Example 220]
